What all share (format): functional
One test has as its system Enterobacter cloacae. The test is described as follows: Antimicrobial activity against multidrug-resistant Enterobacter cloacae E705 bearing qnrB10 gene with aac(6)-IId-aadA1a integron in presence of IPTG.
For test [1], the system named is Escherichia coli. The experiment in a line: Antimicrobial activity against Escherichia coli DH10B expressing pCR2.1 in presence of IPTG. The settings on record: K-12 substr. DH10B.
In test [2] the test system is Escherichia coli. The test is described as follows: Antimicrobial activity against Escherichia coli DH10B in presence of IPTG. The settings on record: K-12 substr. DH10B.
Another test concerns Klebsiella pneumoniae. The experiment in a line: Antimicrobial activity against multidrug-resistant Klebsiella pneumoniae M7943 bearing qnrB10 gene with aac(6)-Ib-cr-blaOXA-30 catB3-arr-3 integron in presence of IPTG.
Test [3] deals with Escherichia coli. The experiment in a line: Antimicrobial activity against multidrug-resistant Escherichia coli M7943-TC2 bearing qnrB10 gene with aac(6)-Ib-cr-blaOXA-30 catB3-arr-3 integron in presence of IPTG.
Test [4] concerns Escherichia coli. The experiment in a line: Antimicrobial activity against Escherichia coli DH10B expressing pCRQB10 in presence of IPTG. The settings on record: K-12 substr. DH10B.
The subject of test [5] is Escherichia coli. The experiment in a line: Antimicrobial activity against Escherichia coli J53-AzR in presence of IPTG.

Structures are written as SMILES. Bounds are passed on as bounds.

Take `C[C@H]1COc2c(N3CCN(C)CC3)c(F)cc3c(=O)c(C(=O)O)cn1c23.C[C@H]1COc2c(N3CCN(C)CC3)c(F)cc3c(=O)c(C(=O)O)cn1c23.O` [LEVOFLOXACIN]: the MIC (in general, the lowest concentration that inhibits growth of the organism) in the test on Enterobacter cloacae is at least 64 µg/mL; in the test with Escherichia coli [1] it was 0.004 µg/mL; in the test on Escherichia coli [2] it was 0.004 µg/mL; with Klebsiella pneumoniae, 4 µg/mL.
With `O=C(O)c1cn(C2CC2)c2cc(N3CCNCC3)c(F)cc2c1=O` [CIPROFLOXACIN], the MIC with Klebsiella pneumoniae came out at 32 µg/mL.
In the case of `CCn1cc(C(=O)O)c(=O)c2cc(F)c(N3CCNCC3)cc21` [NORFLOXACIN], the MIC in the test on Escherichia coli [3] was 2 µg/mL; in the test on Enterobacter cloacae, at least 64 µg/mL; in the test with Escherichia coli [1], 0.008 µg/mL; with Escherichia coli [4], 0.125 µg/mL; in the test with Escherichia coli [5], 0.03 µg/mL; in the test with Escherichia coli [2], 0.008 µg/mL. In addition, the MIC in the test on Klebsiella pneumoniae amounted to 32 µg/mL.
Consider `NC[C@H]1O[C@H](O[C@H]2[C@H](O)[C@@H](O[C@H]3O[C@H](CO)[C@@H](O)[C@H](N)[C@H]3O)[C@H](N)C[C@@H]2N)[C@H](N)C[C@@H]1O` [TOBRAMYCIN], for which the MIC came to 16 µg/mL in the test with Escherichia coli [3]; 32 µg/mL in the test with Enterobacter cloacae; 0.25 µg/mL with Escherichia coli [1]; 0.25 µg/mL with Escherichia coli [4]; 0.25 µg/mL with Escherichia coli [5]; 0.25 µg/mL with Escherichia coli [2]. Besides, in the test with Klebsiella pneumoniae, the MIC turned out to be 16 µg/mL.
For the molecule `NCC[C@H](O)C(=O)N[C@@H]1C[C@H](N)[C@@H](O[C@H]2O[C@H](CN)[C@@H](O)[C@H](O)[C@H]2O)[C@H](O)[C@H]1O[C@H]1O[C@H](CO)[C@@H](O)[C@H](N)[C@H]1O` [AMIKACIN], the MIC in the test on Escherichia coli [3] turned out to be 4 µg/mL; in the test with Enterobacter cloacae, 8 µg/mL; in the test on Escherichia coli [1] it was 2 µg/mL; in the test with Escherichia coli [4] it was 2 µg/mL; in the test on Escherichia coli [5], 0.5 µg/mL; with Escherichia coli [2], 1 µg/mL. Also, in the test on Klebsiella pneumoniae, the MIC turned out to be 16 µg/mL.
`NC[C@H]1O[C@H](O[C@H]2[C@H](O)[C@@H](O[C@H]3O[C@H](CO)[C@@H](O)[C@H](N)[C@H]3O)[C@H](N)C[C@@H]2N)[C@H](O)[C@@H](O)[C@@H]1O` [KANAMYCIN]: the MIC with Escherichia coli [3] is 64 µg/mL; in the test with Enterobacter cloacae, at least 256 µg/mL; with Escherichia coli [1], at least 256 µg/mL; with Escherichia coli [4], at least 256 µg/mL; in the test on Escherichia coli [5], 2 µg/mL; in the test on Escherichia coli [2], 1 µg/mL. In the test on Klebsiella pneumoniae, the MIC worked out at 128 µg/mL.
`CC1COc2c(N3CCN(C)CC3)c(F)cc3c(=O)c(C(=O)O)cn1c23` (stereo unspecified) [OFLOXACIN]: the minimal inhibitory concentration (MIC) with Enterobacter cloacae was at least 64 µg/mL; with Escherichia coli [1], 0.004 µg/mL; in the test on Escherichia coli [2], 0.004 µg/mL; in the test with Klebsiella pneumoniae it was 8 µg/mL.
Consider `COc1c(N2CCNC(C)C2)c(F)cc2c(=O)c(C(=O)O)cn(C3CC3)c12` (stereo unspecified) [GATIFLOXACIN], for which the MIC with Escherichia coli [3] was 0.5 µg/mL; in the test on Enterobacter cloacae it was 32 µg/mL; with Escherichia coli [1], 0.004 µg/mL; in the test on Escherichia coli [4], 0.06 µg/mL; in the test on Escherichia coli [5] it was 0.03 µg/mL; in the test on Escherichia coli [2], 0.004 µg/mL. In the test on Klebsiella pneumoniae, the MIC was determined as 4 µg/mL.
On to `COc1c(N2C[C@@H]3CCCN[C@@H]3C2)c(F)cc2c(=O)c(C(=O)O)cn(C3CC3)c12` [MOXIFLOXACIN], for which the MIC in the test with Escherichia coli [3] was found to be 1 µg/mL; with Escherichia coli [1], 0.004 µg/mL; with Escherichia coli [4], 0.125 µg/mL; in the test with Escherichia coli [2], 0.004 µg/mL; in the test on Klebsiella pneumoniae, 8 µg/mL.
Take `CCn1cc(C(=O)O)c(=O)c2ccc(C)nc21` [NALIDIXIC ACID]: the MIC in the test with Escherichia coli [3] was 16 µg/mL; in the test on Enterobacter cloacae it was at least 256 µg/mL; in the test on Escherichia coli [1], 2 µg/mL; in the test on Escherichia coli [4], 8 µg/mL; in the test with Escherichia coli [5], 4 µg/mL; in the test with Escherichia coli [2] it was 2 µg/mL. Further, in the test on Klebsiella pneumoniae, the MIC was 128 µg/mL.

(Values after ChEMBL document CHEMBL1151447, “Complex class 1 integrons with diverse variable regions, including aac(6')-Ib-cr, and a novel allele, qnrB10, associated with ISCR1 in clinical enterobacterial isolates from Argentina” (2007).)
